Experiment [1] concerns phenylquinone-induced writhing in mice. In words: Analgesic testing by phenylquinone-induced writhing test in mice. In kind it is in vivo, male NMRI mice. The following applies: Mus musculus, read-out: Antinociceptive action in % relative to control group; for inhibition in vivo at 10 mg/kg: 10 mg/kg intravenous. Here is the method:
1.) Analgesic Testing by Writhing Test in Mice
The investigation into analgesic efficacy was performed by phenylquinone-induced writhing in mice (modified after: I. C. Hendershot J. Forsaith, J. Pharmacol. Exp. There. 125, 237-240 (1959)). The corresponding literature description is hereby introduced as a reference and is deemed to be part of the disclosure.
Male NMRI mice weighing from 25 to 30 g were used for this purpose. Groups of 10 animals per substance dose received, 10 minutes after intravenous administration of the compounds tested, 0.3 ml/mouse of a 0.02% aqueous solution of phenylquinone (phenylbenzoquinone, Sigma, Deisenhofen; solution prepared with addition of 5% of ethanol and stored in a water bath at 45° C.) administered intraperitoneally. The animals were placed individually in observation cages. A push button counter was used to record the number of pain-induced stretching movements (writhing reactions=straightening of the torso with stretching of the rear extremities) for 5-20 minutes after phenylquinone administration. The control was provided by animals who received only physiological common salt solution.
The compounds were tested at the standard dosage of 10 mg/kg. Inhibition of the writhing reactions by a substance was calculated according to the following formula: [formula]
1.) Analgesic Testing by Writhing Test in Mice:
The in-depth investigation into analgesic efficacy was performed using phenylquinone-induced writhing in mice, as described above.
(Writhing tests count abdominal constrictions after an irritant is injected.)

Experiment [2] concerns tail flick (pain latency) in mice. Description: Analgesic testing by tail flick test in mice. It is filed as in vivo. Particulars: Mus musculus, read-out: Antinociceptive action in % relative to control group; for inhibition in vivo at 1 mg/kg: 1 mg/kg intravenous. From the text: 2.) Analgesic Testing by Tail Flick Test in Mice
The mice were each individually put in a test cage and the base of the tail was exposed to the focused heat flux from an electric lamp (tail flick type 50/08/1.bc, Labtec, Dr. Hess). The lamp intensity was so set that the time from switching on of the lamp until sudden flicking away of the tail (pain latency) in untreated mice amounted to 3 to 5 seconds. Prior to administration of the solutions containing the compound according to the invention or the respective comparison solutions, the mice were pre-tested twice within five minutes and the average value of these measurements was calculated as a pre-test average value.
The solutions of the compound according to the invention of the general formula I and the comparison solutions were then administered intravenously. Pain was measured in each case 10, 20, 40 and 60 minutes after intravenous administration. The analgesic action was determined as an increase in pain latency (% of the maximum possible antinociceptive effect) in accordance with the following formula: […]
In this formula, the time T0 is the latency time prior to administration, the time T1 is the latency time after administration of active ingredient combination and the time T2 is the maximum exposure period (12 seconds)
2.) Analgesic Testing by Tail Flick Test in Mice:
The in-depth investigation into analgesic efficacy was performed using the tail flick test in mice, as described above.
On the technique in general: Thermal pain tests record how soon the animal reacts.

Molecules are shown by their SMILES.

Consider `COc1ccc(NCCC2CCN(CCc3ccccc3)CC2)cc1` [Example 7, (4-Methoxyphenyl)-[2-(1-phenethylpiperidin-4-yl)ethyl]amine], for which the inhibition in vivo at 10 mg/kg in experiment [1] worked out at 100%.
On to `CC(=O)N(CCC1CCN(CCc2ccccc2)CC1)c1cccc(C(F)(F)F)c1` [Example 21, N-[2-(1-Phenethylpiperidin-4-yl)ethyl]-N-(3-trifluoromethylphenyl)acetamide], for which, in experiment [1], the inhibition in vivo at 10 mg/kg was 100%. The inhibition in vivo at 1 mg/kg in experiment [2] came out at 34%.
Turning to `COc1cccc(NC(=O)CC2CCN(CCc3ccccc3)CC2)c1` [Example 9, N-(3-Methoxyphenyl)-2-(1-phenethyl-piperidin-4-yl)acetamide], the inhibition in vivo at 1 mg/kg in experiment [1] (1 mg/kg intravenous) turned out to be 56%.
Regarding `O=C(c1ccccc1)N(CCC1CCN(CCc2ccccc2)CC1)c1ccccc1` [Example 24, N-[2-(1-Phenethylpiperidin-4-yl)ethyl]-N-phenylbenzamide], in experiment [1], the inhibition in vivo at 10 mg/kg was 100%. Further, the inhibition in vivo at 1 mg/kg in experiment [2] came to 24%.
Consider `COc1ccc(NC(=O)CC2CCN(CCc3ccccc3)CC2)cc1Cl` [Example 10, N-(3-Chloro-4-methoxyphenyl)-2-(1-phenethylpiperidin-4-yl)acetamide], for which the inhibition in vivo at 10 mg/kg in experiment [1] stood at 100%.
Still for that read-out and setting: for `COc1ccc(NC(=O)CC2CCN(CCc3ccccc3)CC2)cc1` [Example 5, N-(4-Methoxyphenyl)-2-(1-phenethyl-piperidin-4-yl)-acetamide] the value was 100%.
Take `O=C(CC1CCN(CCc2ccccc2)CC1)Nc1ccccc1` [Example 1, 2-(1-Phenethyl-piperidin-4-yl)-N-phenylacetamide]: the inhibition in vivo at 0.1 mg/kg in experiment [2] (0.1 mg/kg intravenous) stood at 56%.
Regarding `COc1ccc(N(CCC2CCN(CCc3ccccc3)CC2)C(C)=O)cc1Cl` [Example 18, N-(3-Chloro-4-methoxyphenyl)-N-[2-(1-phenethylpiperidin-4-yl)ethyl]acetamide], in experiment [1], the inhibition in vivo at 10 mg/kg was determined as 100%.
Still for that read-out and setting: for `Oc1cccc(NCCC2CCN(CCc3ccccc3)CC2)c1` [Example 17, 3-[2-(1-Phenethylpiperidin-4-yl)ethylamino]phenol] the value was 100%.
In the case of `COc1ccc(N(CCC2CCN(CCc3ccccc3)CC2)C(=O)c2ccccc2)cc1Cl` [Example 20, N-(3-Chloro-4-methoxyphenyl)-N-[2-(1-phenethylpiperidin-4-yl)ethyl]benzamide], in experiment [1], the inhibition in vivo at 10 mg/kg is 88%. Also, the inhibition in vivo at 1 mg/kg in experiment [2] is 23%.
Take `O=C(C=C1CCN(CCc2ccccc2)CC1)Nc1ccccc1` [Example 3, 2-(1-Phenethyl-piperidine-4-ylidene)-N-phenylacetamide]: the inhibition in vivo at 10 mg/kg in experiment [1] was 69%.
Same read-out and setting: with `O=C(CC1CCN(CCc2ccccc2)CC1)Nc1ccc(Cl)cc1F` [Example 11, N-(4-Chloro-2-fluorophenyl)-2-(1-phenethylpiperidin-4-yl)acetamide] the figure was 100%.
As to `FC(F)(F)c1cccc(NCCC2CCN(CCc3ccccc3)CC2)c1` [Example 13, [2-(1-Phenethyl-piperidin-4-yl)ethyl]-(3-trifluoromethyl-phenyl)amine], the inhibition in vivo at 1 mg/kg in experiment [2] came out at 31%.
Consider `COc1ccccc1NC(=O)CC1CCN(CCc2ccccc2)CC1` [Example 4, N-(2-Methoxyphenyl)-2-(1-phenethylpiperidin-4-yl)-acetamide], for which the inhibition in vivo at 10 mg/kg in experiment [1] worked out at 100%.
Take `Oc1ccccc1NCCC1CCN(CCc2ccccc2)CC1` [Example 8, 2-[2-(1-Phenethylpiperidin-4-yl)ethylamino]phenol]: the inhibition in vivo at 10 mg/kg in experiment [1] turned out to be 100%.
Regarding `CCC(=O)N(CCC1CCN(CCc2ccccc2)CC1)c1ccc(OC)c(Cl)c1` [Example 19, N-(3-Chloro-4-methoxyphenyl)-N-[2-(1-phenethylpiperidin-4-yl)ethyl]propionamide], the inhibition in vivo at 10 mg/kg in experiment [1] is 100%. In experiment [2], the inhibition in vivo at 1 mg/kg turned out to be 35%.
As to `Oc1ccc(NCCC2CCN(CCc3ccccc3)CC2)cc1` [Example 15, 4-[2-(1-Phenethylpiperidin-4-yl)ethylamino]phenol], the inhibition in vivo at 10 mg/kg in experiment [1] is 100%.
On to `Fc1cc(Cl)ccc1NCCC1CCN(CCc2ccccc2)CC1` [Example 16, (4-Chloro-2-fluorophenyl)-[2-(1-phenethylpiperidin-4-yl)ethyl]amine], for which the inhibition in vivo at 10 mg/kg in experiment [1] came out at 80%; in experiment [2] (10 mg/kg intravenous), 31%.
As for `O=C(CC1CCN(CCc2ccccc2)CC1)Nc1ccccc1OC(F)(F)F` [Example 6, 2-(1-Phenethyl-piperidin-4-yl)-N-(2-trifluoromethoxy-phenyl)acetamide], the inhibition in vivo at 10 mg/kg in experiment [1] stood at 99%.
For the compound `CC(=O)N(CCC1CCN(CCc2ccccc2)CC1)c1ccccc1` [Example 22, N-[2-(1-Phenethylpiperidin-4-yl)ethyl]-N-phenylacetamide], the inhibition in vivo at 1 mg/kg in experiment [2] is 24%.
Still for that read-out and setting: with `O=C(CC1CCN(CCc2ccccc2)CC1)Nc1cccc(C(F)(F)F)c1` [Example 12, 2-(1-Phenethylpiperidin-4-yl)-N-(3-trifluoromethyl-phenyl)acetamide] the figure was 21%.
Turning to `COc1cccc(NCCC2CCN(CCc3ccccc3)CC2)c1` [Example 14, (3-Methoxyphenyl)-[2-(1-phenethylpiperidin-4-yl)ethyl]amine], the inhibition in vivo at 10 mg/kg in experiment [1] is 100%.
Still for that read-out and setting: with `CCC(=O)N(CCC1CCN(CCc2ccccc2)CC1)c1ccccc1` [Example 23, N-[2-(1-Phenethylpiperidin-4-yl)ethyl]-N-phenylpropionamide] the figure was 99%.

These data come from patent US20040171640A1, “Substituted 1-phenethylpiperidine compounds used as inter alia analgesics” (priority 2001, published 2004).
